Measurements taken from patent publication US4992448A, “Benzocycloalkylaminopyridinamines and related compounds as topical antiinflammatory agents for the treatment of skin disorders” (Hoechst-Roussel Pharmaceuticals Inc., priority 1989, dated 1991).

How the values were obtained:
[1] = tested on: Phospholipase A2 -induced paw edema; assay: Phospholipase A2-induced Paw Edema (PIPE); format: in vivo, male Wistar rats; conditions: for PIPE (0.1 M), difference in edema vs. control: 0.1 M test compound injected with PLA2 (3 units/paw), subplantar, rat left hind paw, two hours post administration
Method: Phospholipase A2 -induced Paw Edema (PIPE) A2 -induced paw edema in male Wistar rats (100-125 g) was measured. PLA2 (3 units/paw) alone or with 0.1 M of the test compound was injected in the subplantar region of the rat left hind paw. Immediately subsequent to the injection and at two hours post administration the paw was immersed in a mercury bath, and paw displacement was measured on a recorder via a transducer. […] See Giessler, A. J. et. al., Agents and Actions, Vol. 10, Trends in Inflammation Research (1981), p. 195.

porcine pancreatic PLA2 = porcine pancreatic PLA2 (Sus scrofa, UniProt P00592); assay: In Vitro Phospholipase A2 Assay (PLA2); format: biochemical; conditions: 0.01 M test compound; porcine pancreatic PLA2 (3.2 units), pH 8.0, 37° C.
Sequence of porcine pancreatic PLA2 (P00592 23-146): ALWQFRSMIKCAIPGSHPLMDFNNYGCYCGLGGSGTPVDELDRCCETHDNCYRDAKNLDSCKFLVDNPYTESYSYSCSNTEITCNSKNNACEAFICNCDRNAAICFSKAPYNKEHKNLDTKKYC
Method: In Vitro Phospholipase A2 Assay (PLA2) The ability of a compound to modulate PLA2 activity (clevage of ^14 -dipalmitoyl phosphotidylcholine at the 2-position to ^14 C-palmitic acid) was quantitated in this assay. […] The reaction was run at 37° C. in a shaking incubator. The reaction was quenched and an internal standard was added in order to determine sample recovery. The samples were loaded onto D18 columns, eluted with ethanol, and the radioactivity was then measured.

[2] = tested on: ear edema induced by topical application of TPA; assay: TPA-Induced Ear Edema (TPAEE); format: in vivo, Female Swiss WEbster mice; conditions: for TPAEE (10 μg): 10 μg/ear test compound topical, TPA 10 μg/ear, ear punch weight after five hours
Method: TPA-Induced Ear Edema (TPAEE) The purpose of this assay was to determine the ability of a topically-applied compound to prevent ear edema induced by topical application of TPA (phorbol 12/myristate acetate). Female Swiss WEbster mice topically received TPA (10μg/ear) on the right ear and vehicle on the left ear. The test compound (10μg/ear) was applied to both ears. After five hours, the animals were sacrificed and an ear punch (4 mm) was taken from each ear. The difference in right and left ear punch weights for each animal was determined to uses activity. […] See Yound, J. M. et. al., J. Invest.

Nc1cc[n+]([O-])cc1N1CCc2ccccc2C1
PIPE (0.1 M), difference in edema vs. control [1]: -42%
inhibition at 10000 µM (porcine pancreatic PLA2): 59%
TPAEE (10 μg) [2]: -45%

Nc1ccncc1N1CCc2ccccc21 [1-(4-Amino-3-pyridinyl)-2,3-dihydro-1H-indole]
PIPE (0.1 M), difference in edema vs. control [1]: -33%
inhibition at 10000 µM (porcine pancreatic PLA2): 85%
TPAEE (10 μg) [2]: -35%

Nc1cnccc1N1CCc2ccccc21 [1-(3-Amino-4-pyridinyl)-2,3-dihydro-1H-indole]
PIPE (0.1 M), difference in edema vs. control [1]: -34%
inhibition at 10000 µM (porcine pancreatic PLA2): 42%
TPAEE (10 μg) [2]: -74%

C[C@]12CCC(=O)C=C1CC[C@@H]1[C@@H]2[C@@H](O)C[C@@]2(C)[C@H]1CC[C@]2(O)C(=O)CO [hydrocortisone, reference compound]
ED50 (PIPE standard) ([1]; standard, PLA2-induced rat paw edema): 0.46 M
ED50 (TPAEE standard) ([2]; standard, TPA-induced mouse ear edema, topical): 47 μg/ear
